Data as given in patent publication US6495560B1, “Vitronectin receptor antagonist” (SmithKline Beecham Corporation, priority 1998, dated 2002).

Target: T1, αvβ3 (vitronectin receptor) (Homo sapiens, UniProt P05106+P06756)
T1 construct: Human placenta or human platelet αvβ3 (0.1-0.3 mg/mL) in buffer T; from tissue; host or cells: human placenta or human platelets
Assay: Solid-Phase [3H]-SK&F-107260 Binding to αvβ3
Details: human placenta or human platelet αvβ3; competition with 5.0 nM [3H]-SK&F-107260; Ki=IC50/(1+L/Kd)
Experimental: 0.1-0.2 μg of αvβ3 was added per well. The plates were incubated overnight at 4° C. At the time of the experiment, the wells were washed once with buffer A and were incubated with 0.1 mL of 3.5% bovine serum albumin in the same buffer for 1 hr at room temperature. Following incubation the wells were aspirated completely and washed twice with 0.2 mL buffer A.
Compound were dissolved in 100% DMSO to give a 2 mM stock solution, which was diluted with binding buffer (15 mM Tris-HCl (pH 7.4), 100 mM NaCl, 1 mM CaCl2, 1 mM MnCl2, 1 mM MgCl2) to a final compound concentration of 100 μM. This solution is then diluted to the required final compound concentration.
The plates were incubated for 1 hr at room temperature. Following incubation the wells were aspirated completely and washed once with 0.2 mL of ice cold buffer A in a well-to-well fashion.

T1 sequence (P06756 31-889 limits assumed): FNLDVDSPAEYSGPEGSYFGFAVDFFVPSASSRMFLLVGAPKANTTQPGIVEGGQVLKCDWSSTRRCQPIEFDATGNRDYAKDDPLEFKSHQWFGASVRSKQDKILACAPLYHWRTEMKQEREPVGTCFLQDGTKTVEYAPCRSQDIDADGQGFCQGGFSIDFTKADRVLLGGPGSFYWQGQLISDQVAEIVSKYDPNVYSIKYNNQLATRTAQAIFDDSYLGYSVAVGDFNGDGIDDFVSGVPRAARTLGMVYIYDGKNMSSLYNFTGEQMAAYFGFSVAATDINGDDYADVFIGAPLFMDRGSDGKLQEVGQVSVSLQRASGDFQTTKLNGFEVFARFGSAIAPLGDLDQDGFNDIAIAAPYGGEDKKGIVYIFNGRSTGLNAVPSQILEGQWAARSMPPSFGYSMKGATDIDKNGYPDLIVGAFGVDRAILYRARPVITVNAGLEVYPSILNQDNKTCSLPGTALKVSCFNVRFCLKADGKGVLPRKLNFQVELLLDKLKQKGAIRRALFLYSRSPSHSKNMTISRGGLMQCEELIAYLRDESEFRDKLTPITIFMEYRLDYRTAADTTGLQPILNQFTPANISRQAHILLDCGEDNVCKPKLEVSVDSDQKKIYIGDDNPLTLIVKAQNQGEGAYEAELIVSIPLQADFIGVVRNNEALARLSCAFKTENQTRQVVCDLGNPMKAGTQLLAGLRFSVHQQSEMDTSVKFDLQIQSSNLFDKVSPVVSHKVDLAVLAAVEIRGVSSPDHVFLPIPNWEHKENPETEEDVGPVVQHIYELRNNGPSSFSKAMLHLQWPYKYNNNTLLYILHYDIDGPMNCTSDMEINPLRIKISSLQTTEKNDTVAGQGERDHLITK
T1 sequence (P06756 891-1048 partner limits assumed): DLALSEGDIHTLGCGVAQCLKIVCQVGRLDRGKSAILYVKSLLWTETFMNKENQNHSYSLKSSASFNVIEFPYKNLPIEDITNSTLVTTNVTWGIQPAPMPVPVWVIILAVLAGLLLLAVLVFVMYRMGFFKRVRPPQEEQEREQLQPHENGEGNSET
T1 sequence (P05106 27-788): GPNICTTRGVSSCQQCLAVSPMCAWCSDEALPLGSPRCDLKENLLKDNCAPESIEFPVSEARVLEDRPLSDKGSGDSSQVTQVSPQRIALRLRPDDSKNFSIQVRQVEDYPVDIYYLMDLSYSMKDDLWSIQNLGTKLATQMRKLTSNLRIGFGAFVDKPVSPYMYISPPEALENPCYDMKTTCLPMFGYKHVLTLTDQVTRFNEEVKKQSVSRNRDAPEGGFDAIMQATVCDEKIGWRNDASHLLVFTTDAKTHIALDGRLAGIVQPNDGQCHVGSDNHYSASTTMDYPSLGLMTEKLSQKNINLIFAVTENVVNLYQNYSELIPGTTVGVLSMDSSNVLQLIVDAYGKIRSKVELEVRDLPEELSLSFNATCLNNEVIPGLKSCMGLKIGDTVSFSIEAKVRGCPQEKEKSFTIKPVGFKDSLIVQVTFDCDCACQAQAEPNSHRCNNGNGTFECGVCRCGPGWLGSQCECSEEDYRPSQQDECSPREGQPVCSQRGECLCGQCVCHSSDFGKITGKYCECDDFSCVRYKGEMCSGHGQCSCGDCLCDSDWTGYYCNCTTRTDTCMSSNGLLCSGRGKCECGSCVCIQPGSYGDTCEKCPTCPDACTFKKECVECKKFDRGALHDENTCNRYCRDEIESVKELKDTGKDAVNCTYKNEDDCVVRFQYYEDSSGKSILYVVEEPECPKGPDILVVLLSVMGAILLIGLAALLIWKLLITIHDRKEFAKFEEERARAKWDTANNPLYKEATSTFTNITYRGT

## O=C(O)C[C@@H]1Cc2ccc(OCCc3ccc4c(n3)NCCC4)cc2Cc2ccccc21 [Example 1, (S)-10,11-dihydro-3-[2-(5,6,7,8-tetrahydro-1,8-naphthyridin-2-yl)-1-ethoxy]-5H-dibenzo[a,d]cycloheptene-10-acetic acid]
  Ki: ~1.7 nM
